Article PMC13210772, “Dual FLT3/MAPK14 Proteolysis-Targeting Chimera (PROTAC) Induces Potent Acute Myeloid Leukemia Cell Death” (Pharmaceuticals, 2026)

Tests used:
ULK1 = biological target: T1, ULK1 (Homo sapiens, UniProt O75385); assay: NanoBRET CELLinib128; assay type: binding; details: 1 µM; 100% no effect, 0% complete tracer displacement
T1 construct: Full-length kinase ORF (Promega, Madison, WI, USA) cloned in frame with a NanoLuc-vector; host or cells: HEK293T
In short: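 HEK293T cells are transfected with NanoLuc-fused full-length kinase and left 20 h to express. Compound at 1 μM and tracer are added and equilibrated 2 h at 37 °C. Filtered luminescence then yields BRET, expressed relative to tracer and background controls.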

MAPK14 = MAPK14 (Homo sapiens, UniProt Q16539); assay: Global proteomics in MOLT-4 cells; assay type: cell-based; design: global protein expression profiles of MOLT-4 cells treated with 50 nM MA191 for 5 h; endogenous in cells; host or cells: MOLT-4; details: 50 nM, 5 h
Sequence of MAPK14 (Q16539 whole entry): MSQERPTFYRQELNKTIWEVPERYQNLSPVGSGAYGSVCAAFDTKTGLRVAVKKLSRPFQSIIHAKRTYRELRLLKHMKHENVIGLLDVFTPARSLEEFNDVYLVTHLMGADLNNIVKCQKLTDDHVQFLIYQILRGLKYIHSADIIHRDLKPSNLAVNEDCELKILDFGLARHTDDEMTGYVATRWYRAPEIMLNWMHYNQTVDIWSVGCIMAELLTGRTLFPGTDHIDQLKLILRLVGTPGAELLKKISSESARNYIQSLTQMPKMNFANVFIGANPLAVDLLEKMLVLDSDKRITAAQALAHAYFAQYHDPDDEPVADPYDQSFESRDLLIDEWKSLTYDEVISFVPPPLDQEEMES
Procedure: Proteome analyses can uncover unexpected targets of PROTACs. Since AML cells with FLT3-ITD are massively damaged by MA191, we applied it to MOLT-4 cells and analyzed them by proteomics.
MOLT4 cells were lysed using a buffer (50 mM NaCl, 8 M urea, 50 mM EPPS, pH 8.5, with phosphatase and protease inhibitors) and homogenized by bead beating (3 × 30 s at 2400 strokes/min). Protein concentration was determined using the Bradford assay. Fifty micrograms of protein per sample were reduced, alkylated, and precipitated using methanol/chloroform. The dried protein pellet was resuspended in 4 M urea/50 mM HEPES (pH 7.4) and diluted to 1 M urea with 200 mM EPPS (pH 8).
Proteins were digested with LysC and trypsin (1:50, enzyme:protein) for 12 h at 37 °C. Samples were acidified to pH 2–3 with formic acid and desalted using C18 solid-phase extraction. […]
diaPASEF raw data were analyzed using DIA-NN 1.8 in library-free mode, enabling peptide/protein identification, FDR control, protein assembly, and quantification through in silico digestion and deep learning-based predictions. […] Precursor quantification used Robust LC with RT-based cross-run normalization.
Proteins with low total abundance (<2000 × number of treatments) were excluded. […] Significant differences versus control were assessed using two-sided moderated t-tests via the limma package in R framework (R Development Core Team, 2014). […]

T1 sequence (O75385 whole entry): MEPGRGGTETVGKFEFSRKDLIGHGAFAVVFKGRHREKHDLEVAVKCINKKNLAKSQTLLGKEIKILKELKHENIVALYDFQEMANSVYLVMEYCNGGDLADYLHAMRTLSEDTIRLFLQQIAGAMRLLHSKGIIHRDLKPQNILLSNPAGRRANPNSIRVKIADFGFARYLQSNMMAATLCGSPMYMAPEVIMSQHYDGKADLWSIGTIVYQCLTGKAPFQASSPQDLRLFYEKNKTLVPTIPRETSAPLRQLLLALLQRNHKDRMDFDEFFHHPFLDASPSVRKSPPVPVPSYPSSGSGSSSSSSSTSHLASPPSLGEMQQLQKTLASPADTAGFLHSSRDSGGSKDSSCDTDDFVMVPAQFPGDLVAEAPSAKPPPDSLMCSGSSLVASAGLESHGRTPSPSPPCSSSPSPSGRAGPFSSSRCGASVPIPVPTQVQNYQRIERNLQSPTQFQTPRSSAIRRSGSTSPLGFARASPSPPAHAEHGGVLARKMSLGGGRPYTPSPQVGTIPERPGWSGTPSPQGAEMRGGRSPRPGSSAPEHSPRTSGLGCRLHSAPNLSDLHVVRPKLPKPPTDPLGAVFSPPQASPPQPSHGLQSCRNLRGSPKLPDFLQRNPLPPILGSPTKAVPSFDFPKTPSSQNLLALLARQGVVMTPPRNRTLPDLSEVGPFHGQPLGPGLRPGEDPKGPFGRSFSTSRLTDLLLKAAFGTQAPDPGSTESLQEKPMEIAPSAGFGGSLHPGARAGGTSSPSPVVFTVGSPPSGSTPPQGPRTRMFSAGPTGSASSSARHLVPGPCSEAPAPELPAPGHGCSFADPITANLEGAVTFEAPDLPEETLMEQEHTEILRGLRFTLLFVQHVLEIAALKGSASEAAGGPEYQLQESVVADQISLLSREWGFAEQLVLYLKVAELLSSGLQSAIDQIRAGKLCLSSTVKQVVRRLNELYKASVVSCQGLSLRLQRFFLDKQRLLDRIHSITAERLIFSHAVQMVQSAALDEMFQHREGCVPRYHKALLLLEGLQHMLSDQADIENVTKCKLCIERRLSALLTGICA

SMILES | Tracer bound (ULK1) [%] | MAPK14 protein level, proteome analysis (MAPK14)
CNC(=O)c1cc(Oc2ccc(NC(=O)Nc3cc(C(C)(C)C)on3)cc2)ccn1 [MA68, reference compound] | 117.4 | 
Cc1ncsc1-c1ccc([C@H](C)NC(=O)[C@@H]2C[C@@H](O)CN2C(=O)[C@@H](NC(=O)[C@H]2CC[C@H](C(=O)N3CCN(CCNC(=O)c4cc(Oc5ccc(NC(=O)Nc6cc(C(C)(C)C)on6)cc5)ccn4)CC3)CC2)C(C)(C)C)cc1 [MA191, 4-(4-(3-(5-(tert-Butyl)isoxazol-3-yl)ureido)phenoxy)-N-(2-(4-(trans-4-(((S)-1-((2S,4R)-4-hydroxy-2-(((S)-1-(4-(4-methylthiazol-5-yl)phenyl)ethyl)carbamoyl)pyrrolidin-1-yl)-3,3-dimethyl-1-oxobutan-2-yl)carbamoyl)cyclohexanecarbonyl)piperazin-1-yl)ethyl)picolinamide] |  | striking downregulation of MAPK14
